For data set [1], the target named is T1, 5-HT1AR wildtype (Homo sapiens, UniProt P08908).
T1 construct: host or cells: HEK293T, HEK293A, HEK293AΔGs, HEK293AΔGi/o, HEK293AΔARRB1/B2
T1 sequence (P08908 1-422): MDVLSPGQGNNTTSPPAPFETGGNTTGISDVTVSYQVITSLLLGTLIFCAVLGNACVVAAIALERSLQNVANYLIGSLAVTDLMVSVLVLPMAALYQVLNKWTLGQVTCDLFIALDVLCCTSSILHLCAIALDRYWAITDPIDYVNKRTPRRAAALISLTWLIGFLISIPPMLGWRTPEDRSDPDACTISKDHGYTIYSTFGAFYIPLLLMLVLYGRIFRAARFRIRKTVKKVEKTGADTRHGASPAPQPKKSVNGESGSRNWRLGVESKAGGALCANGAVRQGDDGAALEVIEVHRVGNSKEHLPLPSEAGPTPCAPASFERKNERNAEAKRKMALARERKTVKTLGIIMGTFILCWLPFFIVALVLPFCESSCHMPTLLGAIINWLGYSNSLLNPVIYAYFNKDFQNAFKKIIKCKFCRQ
Nature of the data set: GloSensor inhibition of cAMP accumulation in HEK293AΔGs. Type of data set: cell-based. On the technique in general: Changes in cAMP serve as a functional read-out for many G protein-coupled receptors.

Data set [2] addresses T2, 5-HT1AR + Gαz (Homo sapiens, UniProt P08908).
T2 construct: host or cells: HEK293AΔGi/o
Nature of the data set: GloSensor cAMP in HEK293AΔGi/o co-transfected with Gαz. Format: cell-based.

The subject of data set [3] is male C56BL/6 mice. Description: CFA-induced inflammatory pain model. Format: in vivo, mouse.
For data set [4], the target named is T3, 5-HT1AR F112^3.28W + M92^2.60F (Homo sapiens, UniProt P08908, F112W/M92F).
T3 sequence (P08908 1-422 M92F/F112W): T1 sequence (P08908 1-422) with M92F, F112W
Nature of the data set: β-arrestin 2 recruitment, enhanced bystander BRET in HEK293T with GRK2. Type of data set: cell-based. Conditions: HEK-293T; read-out: Emax [% ± SEM], β-arrestin 2 recruitment. Background: Activated receptors often draw arrestin, which recruitment assays turn into a signal.

In data set [5] the target is T3, 5-HT1AR F112^3.28W + M92^2.60F. Nature of the data set: GloSensor inhibition of cAMP accumulation in HEK293AΔGs. The note with it: for Emax: read-out: Emax [% ± SEM], inhibition of cAMP accumulation. Format: cell-based.
The test system of data set [6] is male C56BL/6 mice. Description: Hargreaves test. Conditions: for response latency, Hargreaves: 10 mg/kg i.p. Format: in vivo, mouse.
The target of data set [7] is T1, 5-HT1AR wildtype. Nature of the data set: GloSensor cAMP assay in HEK293A cells. Format: cell-based.
Data set [8] addresses T4, 5-HT1AR F112^3.28W (Homo sapiens, UniProt P08908, F112W).
T4 sequence (P08908 1-422 F112W): T1 sequence (P08908 1-422) with F112W
Nature of the data set: Radioligand competition, displacement of [3H]WAY100635. Type of data set: binding.

For data set [9], the system named is 5-HT1AR KO mice. Description: 52°C hot plate in 5-HT1AR KO mice. Type of data set: in vivo, mouse.
In data set [10] the target is T5, 5-HT6R (Homo sapiens, UniProt P50406).
T5 construct: host or cells: HEK293T, transient; membranes
T5 sequence (P50406 whole entry): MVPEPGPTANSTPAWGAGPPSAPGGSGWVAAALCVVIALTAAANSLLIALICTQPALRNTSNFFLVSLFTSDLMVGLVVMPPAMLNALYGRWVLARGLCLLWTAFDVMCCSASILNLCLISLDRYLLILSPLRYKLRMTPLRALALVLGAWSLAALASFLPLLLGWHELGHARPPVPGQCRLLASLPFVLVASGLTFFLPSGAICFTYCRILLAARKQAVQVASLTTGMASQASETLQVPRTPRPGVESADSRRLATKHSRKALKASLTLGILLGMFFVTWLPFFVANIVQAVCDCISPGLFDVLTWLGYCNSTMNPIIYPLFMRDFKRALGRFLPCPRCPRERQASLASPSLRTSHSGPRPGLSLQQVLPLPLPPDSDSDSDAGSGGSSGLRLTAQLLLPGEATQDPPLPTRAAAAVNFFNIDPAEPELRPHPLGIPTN
Description: Radioligand competition, displacement of [3H]LSD. Format: binding. A general note: In a radioligand displacement assay an active substance lowers the binding of a labelled ligand.

Data set [11] relates to male C56BL/6 mice. Nature of the data set: Accelerating rotarod. Format: in vivo, mouse.
The target of data set [12] is T1, 5-HT1AR wildtype. Description: β-arrestin 2 recruitment, enhanced bystander BRET in HEK293T with GRK2. Format: cell-based. The note with it: HEK-293T; read-out: Emax [% ± SEM], β-arrestin 2 recruitment.
Data set [13] has as its target T6, 5-HT1AR (Homo sapiens, UniProt P08908).
T6 sequence (P08908 1-422): T1 sequence (P08908 1-422)
Description: Complementation-based β-arrestin 2 recruitment PathHunter assay. Conditions: for Emax: relative to serotonin.

In data set [14] the target is T6, 5-HT1AR. Description: GloSensor cAMP assay in HEK293A cells deficient of β-arrestins. Format: cell-based. Also on record: host or cells: HEK293T, HEK293A, HEK293AΔGs, HEK293AΔGi/o, HEK293AΔARRB1/B2.
The target in data set [15] is T6, 5-HT1AR. Nature of the data set: BRET-based cAMP assay (CAMYEL biosensor) in CHO-K1 cells. Type of data set: cell-based.
Setting [16] is: HEK293-A, read-out: Emax [%±SEM], inhibition of cAMP accumulation.
Where [17] appears, read: read-out: Emax, β-arrestin 2 recruitment, PathHunter, elevated GRK2.
[18] abbreviates: read-out: Emax, β-arrestin 2 recruitment, PathHunter, native GRK2.
The mark [19] stands for this setting: HEK293-A; read-out: Emax [%±SEM], inhibition of cAMP accumulation.

Positions count from the first letter of the chain named. Read-outs that look alike come from different tables or passages of the source.

Broadly, the EC50 is the concentration giving half of the maximal effect. A word on the Emax: it is the greatest response seen or fitted, relative to the assay's reference.

T2 sequence (P19086 2-355 partner limits assumed, one chain of several): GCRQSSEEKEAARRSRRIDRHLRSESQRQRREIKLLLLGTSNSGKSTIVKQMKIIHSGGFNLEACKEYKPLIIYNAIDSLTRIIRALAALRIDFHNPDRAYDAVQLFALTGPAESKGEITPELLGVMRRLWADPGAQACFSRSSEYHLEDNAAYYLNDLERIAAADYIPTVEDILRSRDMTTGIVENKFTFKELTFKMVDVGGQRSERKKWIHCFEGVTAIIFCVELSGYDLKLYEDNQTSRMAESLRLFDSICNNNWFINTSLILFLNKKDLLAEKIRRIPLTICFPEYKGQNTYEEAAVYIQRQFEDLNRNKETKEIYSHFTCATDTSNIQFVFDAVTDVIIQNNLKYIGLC

With `COc1ccccc1OCCNCCCOc1ccc2c(c1)NC(=O)CO2` [ST171], the EC50 in data set [1] (HEK293AΔGs, wildtype, read-out: EC50 [nM ± SEM], inhibition of cAMP accumulation) worked out at 5.3 ± 0.8 nM; in [5] (HEK293AΔGs, F112W + M92F, read-out: EC50 [nM ± SEM], inhibition of cAMP accumulation), 1.8 ± 0.6 nM; in data set [7] (HEK293A, GloSensor, wildtype; read-out: EC50 left [nM±SEM], inhibition of cAMP accumulation) it was 3.4 ± 0.8 nM; in data set [13], 5.5 ± 1.4 nM; in [14] (HEK Δβ-arrestin, GloSensor; read-out: EC50 left [nM±SEM], inhibition of cAMP accumulation), 3.5 ± 1 nM; in data set [15] (CHOK1, CAMYEL, wildtype; read-out: EC50 left [nM±SEM], inhibition of cAMP accumulation), 0.88 ± 0.3 nM. For the same compound, the “Emax [% ± SEM], inhibition of cAMP accumulation” value in data set [1] (HEK293AΔGs, wildtype, relative to serotonin) was determined as 74 ± 3%. Further, the Emax in data set [1] (read-out: Emax [% ± SEM], inhibition of cAMP accumulation, HEK293AΔGs, wildtype, relative to serotonin) is 73%; in data set [2] it was 93%; in data set [4] it was below 5%; in data set [5], 85 ± 11%; in data set [7] (setting [16]), 86 ± 5%; in data set [12], below 5%. The maximum response (Emax) was 15% in [13] (setting [17]); below 5% in data set [13] (setting [18]); 60% in data set [14] (setting [16]); below 5% in data set [15] (CHO-K1, CAMYEL, PTX addition; read-out: Emax, cAMP effect in the presence of PTX); 87 ± 1% in [15] (CHO-K1, read-out: Emax [%±SEM], inhibition of cAMP accumulation). For the same compound, the “mechanical thresholds of the injured hind paw, CFA model” value in [3] (10 mg/kg intraperitoneal) is “significantly increased the mechanical thresholds”. In addition, the “response latency, Hargreaves” value in data set [6] is reported as “antinociceptive”. In addition, the “antinociception, Hargreaves, lower doses” value in data set [6] (1 and 5 mg/kg) is reported as “not as antinociceptive as the 10 mg/kg dose”. Besides, the Ki was 0.16 nM in [8] (5-HT1AR F112W, HEK 293T membranes, read-out: Ki [nM ± SEM]); 3080 nM in data set [10] (5-HT6, read-out: pKi (converted)); 3300 ± 300 nM in data set [10] (5-HT6R, HEK 293T membranes, read-out: Ki [nM ± SEM]). For the same compound, the “response latency, hot plate in 5-HT1AR KO mice” value in data set [9] (10 mg/kg) was “no significant antinociceptive effect”. Also, the “sedative effects, accelerating rotarod” value in [11] (10 mg/kg) is on record as “did not differ from control mice injected with vehicle”; in data set [11] (15 mg/kg) it was “presumptive sedative effect”.

As to `Cc1ccc(CNCC2(F)CCN(C(=O)c3ccc(F)c(Cl)c3)CC2)nc1` [befiradol, reference compound], the Emax stood at 87 ± 3% in data set [1] (read-out: Emax [% ± SEM], inhibition of cAMP accumulation); 95 ± 2% in data set [2]; 83 ± 4% in data set [4]; 99 ± 7% in [5]; 93 ± 2% in data set [7] (setting [19]); 79 ± 1% in [12]. Moreover, the Emax is 96 ± 3% in data set [13] (setting [17]); 67% in data set [13] (setting [18]); 89 ± 4% in [14] (setting [19]); 91 ± 3% in data set [15] (CHO-K1; read-out: Emax [%±SEM], inhibition of cAMP accumulation). Further, the “mechanical sensitivity, CFA model” value in data set [3] (nonsedating dose 1 mg/kg) is “reduced the mechanical sensitivity”. In data set [6], the “response latency, Hargreaves” value was “antinociceptive”. In addition, the “Esat [%±SEM]” value is 75 ± 3% in [7] (HEK293A, GloSensor, wildtype) and 73 ± 5% in data set [14] (HEK Δβ-arrestin, GloSensor). The “decrease in the binding affinity upon mutation of F112^3.28 to tryptophan” value in data set [8] (F112W vs WT) was found to be 16 fold. The “response latency, hot plate in 5-HT1AR KO mice” value in data set [9] (1.0 mg/kg) is “no significant antinociceptive effect”. This compound registered a Ki in data set [10] above 50000 nM. Further, in data set [11] (all doses >1 mg/kg), the “sedative effects, accelerating rotarod” value is given as “significantly reduced the ability of the mouse to continue on the rotarod”. Moreover, in [13] (PathHunter β-arrestin 2), the “increase in efficacy with elevated vs native GRK2” value is on record as “approximately 30%”. The “increase of potency with elevated vs native GRK2” value in [13] (PathHunter β-arrestin 2) is recorded as 4 fold. Also, in [15] (CHOK1, CAMYEL; relative to serotonin maximum inhibition), the “Esat [%±SEM], efficacy at saturating ligand concentrations” value is 65 ± 4%.

The record behind these values is paper PMC12175894 (Science Advances, 2025).
